Assay results: patent publication US20120058953A1, “COMPOSITIONS AND METHODS FOR ENHANCING APOPTOSIS” (Genentech, Inc., priority 2003, published 2012)
Like-named read-outs stand apart in the source and are kept apart here. Non-standard residues stand in square brackets, D forms with d. Residues, ends and D or L forms follow the SMILES beside them. Phe(ol) = N[C@H](CO)Cc1ccccc1

Experiments:
Assay type in all cases: binding
XIAP-BIR3 = molecular target: T1, XIAP-BIR3 (Homo sapiens, UniProt P98170); test: fluorescence polarization competition assay, XIAP-BIR3
T1 construct: X-IAP BIR3 (amino acids residues 241-356); made in house; host or cells: Escherichia coli BL21 (DE3)
T1 sequence (P98170 241-356): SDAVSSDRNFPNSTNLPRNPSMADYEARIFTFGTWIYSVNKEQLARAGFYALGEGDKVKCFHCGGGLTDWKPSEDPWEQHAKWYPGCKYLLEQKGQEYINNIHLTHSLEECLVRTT
Description: (§1) The apparent Kd values can be determined from the EC50 values.
(§2) The vectors pET15b-XIAPBIR2C202AC218G, pET15b-XIAPBIR3, and pET15b-MLIAPBIR were introduced into Escherichia coli strain BL21 (DE3). Overnight cultures were diluted 1:100 and grown at 30° C. in LB media with […] to an A600 of 0.5-0.7 with vigorous shaking. Isopropyl b-D-thiogalactoside (IPTG) was added to a final concentration of 1 mM and cultures were grown for 4 hours at 30° C. One litre of frozen cell pellet was resuspended in 100 ml Buffer A (50 mM Tris [pH 8.0], 300 mM NaCl, 5 mM b-mercaptoethanol, 0.5 mM PMSF, 2 mM benzamidine) with 5 mM imidazole and placed on ice for 30 minutes. Cells were lysed by homogenizing followed by repeated passes through a microfluidizer. Lysate was cleared by centrifugation at 15,000 rpm for 30 minutes. The supernatant was loaded onto a Ni-agarose column (Qiagen), washed with 10 column volumes Buffer A with 10 mM imidazole, and eluted with 10 column volumes Buffer A with 300 mM imidazole. Fractions containing BIR protein were pooled. Final concentrations of 5 mM DTT and 100 mM zinc acetate were added. The pool was concentrated and loaded on a Superdex 75™ (Pharmacia) sizing column. Protein eluted over one column volume into 50 mM Tris 8.0, 300 mM NaCl, 0.5 mM PMSF, 2 mM benzamidine, 5 mM DTT, 50 mM zinc acetate, 1 mM sodium azide. Fractions containing BIR protein were pooled and dialyzed against 4 changes of buffer containing 50 mM Tris (pH 8.0), 120 mM NaCl, 5 mM DTT, 0.5 mM PMSF, 2 mM benzamidine, 50 mM zinc acetate, 1 mM sodium azide. Protein was concentrated and stored at −80° C. for further characterization.
(§3) The apparent Kd values were determined from the EC50 values. […] Samples were read after a 10-minute incubation.

XIAP-BIR2 = molecular target: T2, XIAP-BIR2 (Homo sapiens, UniProt P98170, C202A/C213G); test: fluorescence polarization competition assay, XIAP-BIR2
T2 construct: X-IAP BIR2 (amino acid residues 124-240 with mutations C202A and C213G); made in house; host or cells: Escherichia coli BL21 (DE3)
T2 sequence (P98170 124-240 C202A/C213G): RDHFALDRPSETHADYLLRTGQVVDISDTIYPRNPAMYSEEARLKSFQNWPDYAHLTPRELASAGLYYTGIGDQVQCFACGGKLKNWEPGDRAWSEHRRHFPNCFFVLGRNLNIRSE
Description: as §1, §2, §3

ML-IAP-BIR = molecular target: T3, ML-IAP-BIR (Homo sapiens, UniProt Q96CA5); test: fluorescence polarization competition assay, ML-IAP-BIR
T3 construct: made in house; host or cells: Escherichia coli BL21 (DE3)
T3 sequence (Q96CA5 63-179): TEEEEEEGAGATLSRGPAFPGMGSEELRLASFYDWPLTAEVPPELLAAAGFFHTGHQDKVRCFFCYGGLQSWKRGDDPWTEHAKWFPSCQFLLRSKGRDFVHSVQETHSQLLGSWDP
Description: as §1, §2, §3

[1] = Table 4, P4 amino acid/phenylethylamine scan, Hid-FAM probe

Structure (SMILES)	Ki (ML-IAP-BIR; [1])	also measured
CC(C)[C@H](NC(=O)[C@H](C)NC(=O)[C@H](CCC(=O)O)NC(=O)[C@H](C)N)C(=O)N1CCC[C@H]1C(=O)N[C@@H](Cc1c[nH]c2ccccc12)C(=O)N[C@@H](CCCCN)C(=O)N[C@@H](CO)C(=O)N[C@@H](CCC(=O)O)C(=O)O		Ki (XIAP-BIR3): > 64000 nM; Ki (XIAP-BIR2): 3600 nM
CC(C)[C@H](NC(=O)[C@H](C)NC(=O)[C@H](CCC(N)=O)NC(=O)[C@H](C)N)C(=O)N[C@@H](C)C(=O)N[C@@H](Cc1c[nH]c2ccccc12)C(=O)N[C@@H](CCCCN)C(=O)N[C@@H](CO)C(=O)N[C@@H](CCC(=O)O)C(=O)O		Ki (ML-IAP-BIR): 7000 nM
CC(C)[C@H](NC(=O)[C@H](C)N)C(=O)NCC(=O)N[C@H](C(=O)N1CCC[C@H]1C(=O)N[C@@H](Cc1c[nH]c2ccccc12)C(=O)N[C@@H](CCCCN)C(=O)N[C@@H](CO)C(=O)N[C@@H](CCC(=O)O)C(=O)O)C(C)C		Ki (ML-IAP-BIR): 6000 nM
CC[C@H](C)[C@H](NC(=O)[C@H](Cc1c[nH]c2ccccc12)NC(=O)[C@@H]1CCCN1C(=O)[C@@H](NC(=O)[C@H](C)N)C(C)C)C(=O)NCC(=O)N[C@@H](CCCCN)C(=O)N[C@@H](CO)C(=O)N[C@@H](CCC(=O)O)C(=O)O		Ki (ML-IAP-BIR): 330 nM
CC(C)[C@H](NC(=O)[C@H](C)N)C(=O)N1CCC[C@H]1C(=O)N[C@@H](Cc1ccccc1)C(=O)O [AVPF] (H-AVPF-OH; N-terminus assumed)	90 nM	
CC[C@H](C)[C@H](NC(=O)[C@@H]1CCCN1C(=O)[C@@H](NC(=O)[C@H](C)N)C(C)C)C(=O)O [AVPI]	330 nM	
CC(C)[C@H](NC(=O)[C@H](C)N)C(=O)N1CCC[C@H]1C(=O)NCC(c1ccccc1)c1ccccc1 [AVPX24]	30 nM	
CC(C)[C@H](NC(=O)[C@H](C)N)C(=O)N1CCC[C@H]1C(=O)N[C@@H](CO)[C@@H](O)c1ccccc1 [AVPX25]	1500 nM	
CC(C)[C@H](NC(=O)[C@H](C)N)C(=O)N1CCC[C@H]1C(=O)NCCc1cccc(C(F)(F)F)c1 [AVPX26]	1900 nM	
CC(C)[C@H](NC(=O)[C@H](C)N)C(=O)N1CCC[C@H]1C(=O)N[C@H](CO)[C@H](O)c1ccccc1 [AVPX27]	410 nM	
CC(C)[C@H](NC(=O)[C@H](C)N)C(=O)N1CCC[C@H]1C(=O)N[C@@H]1C[C@H]1c1ccccc1 [AVPX28a]	850 nM	Ki (XIAP-BIR3; [1]): 7600 nM
CC(C)[C@H](NC(=O)[C@H](C)N)C(=O)N1CCC[C@H]1C(=O)N[C@H]1C[C@@H]1c1ccccc1 [AVPX28b]	1000 nM	Ki (XIAP-BIR3; [1]): 1400 nM
CC(CNC(=O)[C@@H]1CCCN1C(=O)[C@@H](NC(=O)[C@H](C)N)C(C)C)c1ccccc1 (some centres unmarked) [AVPX31]	270 nM	
CC(C)[C@H](NC(=O)[C@H](C)N)C(=O)N1CCC[C@H]1C(=O)N[C@H](CO)Cc1ccccc1 [AVPX32] (H-AVP[Phe(ol)]; N-terminus assumed)	90 nM	Ki (XIAP-BIR3; [1]): 390 nM; Ki (XIAP-BIR2; [1]): 441000 nM
CC(C)[C@H](NC(=O)[C@H](C)N)C(=O)N1CCC[C@H]1C(=O)NC[C@H](O)c1ccccc1 [AVPX33]	310 nM	
CCOc1cccc(CCNC(=O)[C@@H]2CCCN2C(=O)[C@@H](NC(=O)[C@H](C)N)C(C)C)c1 [AVPX34]	780 nM	
COc1ccc(Br)cc1CCNC(=O)[C@@H]1CCCN1C(=O)[C@@H](NC(=O)[C@H](C)N)C(C)C [AVPX36]	1300 nM	
CC(C)[C@H](NC(=O)[C@H](C)N)C(=O)N1CCC[C@H]1C(=O)NCCc1cccc(F)c1 [AVPX37]	870 nM	
